Experiments:
Type in all cases: in vivo
Mature female rats = assay: Endocrine profile (thymus, adrenal and body weight after 2 weeks oral medication); conditions: compared with the controls
Description: The test procedures used to determine the biological activities of the compounds of the invention were carried out as follows: • Endocrine Profile: Mature female rats with an average body weight of 202 g and a body weight range of 15 g or less were medicated orally with test compound for 2 weeks. The test compound was prepared as a solution or suspension in 1% gum tragacanth or 0.75% methyl cellulose. On the day following the last medication, the rats were killed and the thymus and adrenal of each rat were removed, cleaned, and weighed. Body weights and food consumptions were also recorded.

[1] = test system: Mature male rats were bilaterally adrenalectomized; assay: Glycogenic activity (liver glycogen deposition test)
Text: Glycogenic Activity: Mature male rats were bilaterally adrenalectomized 5 days prior to the test. These rats were medicated orally with the test compound for 5 days. Seven hours after the last medication, the rats (which have been fasted overnight) were anesthetized with sodium pentobarbital and a portion of one lobe of the liver was removed and frozen on dry ice for subsequent glycogen determination.

Male rats = assay: Anti-inflammatory activity (a-tocopherol pouch test)
Description: A rapid subcutaneous injection of 25 mL of air was made between the scapulae of each rat. […] The test compound was administered in daily oral doses for 7 days beginning on the day of pouch formation. The compound to be tested was suspended in 1% gum tragacanth. Twenty-four hours after the last medication, the pouches were dissected free, and the fluid volume was measured. The inhibition of liquid exudate is a measure of the anti=inflammatory activity.

| SMILES | reduction in adrenal weight (Mature female rats; dose level of 1 mg/kg) | reduction in body weight gain (Mature female rats; dose level of 1 mg/kg) | reduction in thymus weight (Mature female rats; dose level of 1 mg/kg) | liver glycogen deposition value ([1]; dose level of 9 mg/kg/day x 5, oral, adrenalectomized male rats, vehicle 2.2 + 0.04 mg/g) | glucocorticoid activity by the liver glycogen deposition test ([1]; oral, rats, general statement) | ED50 (Male rats; Rattus norvegicus, 168 h, daily oral doses for 7 days, male rats, inhibition of liquid exudate) | anti-inflammatory activity by the a-tocopherol pouch test (Male rats; rats, general statement) | reduction in adrenal weight (Mature female rats; dose level of 5 mg/kg) | reduction in body weight gain (Mature female rats; dose level of 5 mg/kg) | reduction in thymus weight (Mature female rats; dose level of 5 mg/kg) | activity in the a-tocopherol pouch test (Male rats; dose level of 100 mg/kg, daily oral doses for 7 days, male rats) |
| --- | --- | --- | --- | --- | --- | --- | --- | --- | --- | --- | --- |
| CC12Cc3cnn(-c4ccc(F)cc4)c3C=C1CCC1OC3(CC=C12)C(=O)c1ccccc1C3=O (centres unmarked) [Compound I (R = F), 8'-(4-Fluorophenyl)-2',3',5',6',ll',lla'-hexahydro-lla'-methylspiro-2H-indene[2,3']-3H-pyrazolo[4",5":7',6']-naphtho-[2,1-b] pyran-1,3-dione] | 56% | 129% | 61% | 21.8 + 4.4 mg/g of tissue | oral glucocorticoid activity | 10 mg/kg | anti-inflammatory activity | – | – | – | – |
| CC12Cc3cnn(-c4ccccc4)c3C=C1CCC1OC3(CC=C12)C(=O)c1ccccc1C3=O (centres unmarked) [Compound I (R = H), 2',3',5',6',11',11a'-Hexahydro-11a'-methyl-8'-phenylspiro 2H-indene[2,3']-3H-pyrazolo[4",5":7',6']naphtho[2,1-b] pyran-1,3-dione] | – | – | – | – | – | – | – | 38% | 62% | 51% | inactive |

Reference: patent EP0103030A1, “Polycyclic fused pyrazole compounds, useful as anti-inflammatory agents, and preparation thereof” (STERLING DRUG INC., priority 1982, dated 1984)
